System: UBE2L3-KRAS fusion protein
Experiment: Western blotting of UBE2L3-KRAS fusion protein in cells treated with bortezomib
Assay type: cell-based, human
Description: The prostate cancer cell lines DU145 were transfected with siRNA duplex (Dharmacon, Lafayette, Colo., USA) against UBE2L3 (5′-CCACCGAAGATCACATTTA-3′; SEQ ID NO:1), KRAS (5′-GAAGTTATGGAATTCCTTT-3′; SEQ ID NO:2) or the fusion junction (5′-CCGACCAAGGCCTGCTGAA-3′; SEQ ID NO:3) by oligofectamine (Invitrogen). DU145 transfected with non-targeting siRNA and RWPE cells was used as negative control. Post 48 hours transfection, cells were homogenized in NP40 lysis buffer (50 mM Tris-HCl, 1% NP40, pH 7.4, Sigma, St. Louis, Mo.), and complete proteinase inhibitor mixture (Roche, Indianapolis, Ind.). Ten micrograms of each protein extract were boiled in sample buffer, separated by SDS-PAGE, and transferred onto Polyvinylidene Difluoride membrane (GE Healthcare, Piscataway, N.J.). The membrane was incubated for one hour in blocking buffer [Tris-buffered saline, 0.1% Tween (TBS-T), 5% nonfat dry milk] and incubated overnight at 4° C. with the following antibodies: anti-RAS mouse monoclonal (1:1000 in blocking buffer, Millipore Cat #: 05-516), anti-KRAS rabbit polyclonal (1:1000, Proteintech Group Inc., Cat #: 12063-1-AP) and anti-beta Actin mouse monoclonal (1:5000, Sigma Cat #: A5441) antibodies. Following three washes with TBS-T, the blot was incubated with horseradish peroxidase-conjugated secondary antibody and the signals visualized by enhanced chemiluminescence system as described by the manufacturer (GE Healthcare). To test fusion protein expression in multiple prostate derived cell lines, lysates from DU145, PrEC, RWPE, 22RV1, VCaP, PC3 either untreated or treated with 500 nM bortezomib for 12 hours were used. Bortezomib treated HEK cells over-expressing UBE2L3-KRAS fusion protein was used as a positive control. […] For ERK activation analysis NIH 3T3 cells were starved for 12 hours before immunoblot analysis using phospho erk1/2 antibody. All antibodies for the MAPK signaling proteins were purchased from Cell Signaling Technologies.

SMILES: CC(C)C[C@H](NC(=O)[C@H](Cc1ccccc1)NC(=O)c1cnccn1)B(O)O [bortezomib]
- levels of UBE2L3-KRAS protein expression (Western blot) (DU145 cells, 500 nM bortezomib for 12 hours): enhanced the levels of UBE2L3-KRAS protein expression
- expression of the UBE2L3-KRAS fusion protein (Western blot) (HEK293 cells over-expressing UBE2L3-KRAS construct, 500 nM bortezomib for 12 hours): expression of the fusion protein was clearly apparent
- expression of the UBE2L3-KRAS fusion protein (Western blot) (RWPE prostate epithelial cells overexpressing UBE2L3-KRAS): proteosomal inhibition with bortezomib was required

From patent publication US20140364331A1, “RECURRENT GENE FUSIONS IN PROSTATE CANCER” (THE REGENTS OF THE UNIVERSITY OF MICHIGAN, priority 2009, published 2014)
